Results reported in US12655116B2, “Substituted isophthalic acid diamides” (Bayer Aktiengesellschaft, priority 2020, dated 2026).

Tests used:
VERPE = experiment: Pre-emergence herbicidal action against VERPE; type: in vivo, Veronica persica; conditions: dosage 80 g/ha
Summary of the method: (§1)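 Sandy loam pots, seeds covered with soil, then surface-treated with WP or EC formulations at 600–800 l/ha water plus 0.2% wetting agent. Greenhouse, 3 weeks. Percent damage vs untreated controls.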

DIGSA [1] = experiment: Post-emergence herbicidal action against DIGSA; type: in vivo, Digitaria sanguinalis; conditions: 20 g/ha
Summary of the method: (§2)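 Visual % rating (0% = as untreated, 100% = dead) ~3 wk after spraying one-leaf-stage plants grown in sandy loam; WP/EC in water at 600–800 l/ha, 0.2% wetting agent.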

DIGSA [2] = experiment: Pre-emergence herbicidal action against DIGSA; type: in vivo, Digitaria sanguinalis
Summary of the method: as §1

POLCO = experiment: Pre-emergence herbicidal action against POLCO; type: in vivo, Polygonum convolvulus; conditions: dosage 80 g/ha
Summary of the method: as §1

ABUTH [3] = experiment: Pre-emergence herbicidal action against ABUTH; type: in vivo, Abutilon theophrasti; conditions: for Pre-emergence action against ABUTH (herbicidal activity): 80 g/ha, scored visually after 3 weeks vs untreated controls (100% = plants have died, 0% = like control plants); for Pre-emergence action against ABUTH (herbicidal activity in percent): dosage 20 g/ha, scored visually after 3 weeks vs untreated controls, 100% = plants have died, 0% = like control plants
Summary of the method: as §1

ALOMY [4] = experiment: Pre-emergence herbicidal action against ALOMY; type: in vivo, Alopecurus myosuroides; conditions: 80 g/ha, pre-emergence, scored visually after 3 weeks vs untreated controls (100% = plants have died, 0% = like control plants)
Summary of the method: as §1

PHBPU [5] = experiment: Post-emergence herbicidal action against PHBPU; type: in vivo, Pharbitis purpurea
Summary of the method: as §2

MATIN [6] = experiment: Post-emergence herbicidal action against MATIN; type: in vivo, Matricaria inodora
Summary of the method: as §2

MATIN [7] = experiment: Pre-emergence herbicidal action against MATIN; type: in vivo, Matricaria inodora
Summary of the method: as §1

ALOMY [8] = experiment: Post-emergence herbicidal action against ALOMY; type: in vivo, Alopecurus myosuroides; conditions: dosage 20 g/ha, visual assessment about 3 weeks after treatment vs untreated controls
Summary of the method: as §2

VIOTR [9] = experiment: Pre-emergence herbicidal action against VIOTR; type: in vivo, Viola tricolor
Summary of the method: as §1

SETVI [10] = experiment: Pre-emergence herbicidal action against SETVI; type: in vivo, Setaria viridis; conditions: dosage 80 g/ha
Summary of the method: as §1

ABUTH [11] = experiment: Post-emergence herbicidal action against ABUTH; type: in vivo, Abutilon theophrasti; conditions: visual assessment about 3 weeks after treatment vs untreated controls
Summary of the method: as §2

AMARE [12] = experiment: Pre-emergence herbicidal action against AMARE; type: in vivo, Amaranthus retroflexus
Summary of the method: as §1

PHBPU [13] = experiment: Pre-emergence herbicidal action against PHBPU; type: in vivo, Pharbitis purpurea
Summary of the method: as §1

ECHCG [14] = experiment: Post-emergence herbicidal action against ECHCG; type: in vivo, Echinochloa crus-galli; conditions: dosage 20 g/ha
Summary of the method: as §2

LOLRI = experiment: Pre-emergence herbicidal action against LOLRI; type: in vivo, Lolium rigidum; conditions: 80 g/ha
Summary of the method: as §1

AMARE [15] = experiment: Post-emergence herbicidal action against AMARE; type: in vivo, Amaranthus retroflexus; conditions: 20 g/ha, visual assessment about 3 weeks after treatment, 100% = plants have died, 0% = like control plants
Summary of the method: as §2

ECHCG [16] = experiment: Pre-emergence herbicidal action against ECHCG; type: in vivo, Echinochloa crus-galli; conditions: 80 g/ha
Summary of the method: as §1

AVEFA = experiment: Pre-emergence herbicidal action against AVEFA; type: in vivo, Avena fatua; conditions: 80 g/ha, pre-emergence
Summary of the method: as §1

VIOTR [17] = experiment: Post-emergence herbicidal action against VIOTR; type: in vivo, Viola tricolor; conditions: 20 g/ha
Summary of the method: as §2

SETVI [18] = experiment: Post-emergence herbicidal action against SETVI; type: in vivo, Setaria viridis; conditions: dosage 20 g/ha
Summary of the method: as §2

[19] = 20 g/ha, scored visually after 3 weeks vs untreated controls, 100% = plants have died, 0% = like control plants
[20] = 80 g/ha, scored visually after 3 weeks vs untreated controls (100% = plants have died, 0% = like control plants)

SMILES	Post-emergence action against DIGSA (DIGSA [1])	Pre-emergence action against DIGSA in % (DIGSA [2]; dosage 20 g/ha)	Pre-emergence action against DIGSA in % (DIGSA [2]; dosage 80 g/ha)	Pre-emergence action against POLCO in % (POLCO)	Pre-emergence action against ABUTH (herbicidal activity) (ABUTH [3])	Pre-emergence action against ABUTH (herbicidal activity in percent) (ABUTH [3])	Pre-emergence action against ALOMY (herbicidal activity) (ALOMY [4])	Post-emergence action against MATIN in % (MATIN [6]; dosage 20 g/ha)	Pre-emergence action against MATIN in % (MATIN [7]; dosage 20 g/ha)	Pre-emergence action against MATIN in % (MATIN [7]; dosage 80 g/ha)	Pre-emergence action against VIOTR in % (VIOTR [9]; dosage 80 g/ha)	Pre-emergence action against SETVI in % (SETVI [10])	Post-emergence action against ABUTH in % (ABUTH [11]; dosage 20 g/ha)	Pre-emergence action against AMARE in % (AMARE [12]; [19])	Pre-emergence action against AMARE in % (AMARE [12]; [20])	Pre-emergence action against PHBPU in % (PHBPU [13]; dosage 80 g/ha)	Post-emergence action against ECHCG in % (ECHCG [14])	Pre-emergence action against LOLRI in % (LOLRI)	Post-emergence action at 20 g/ha against AMARE in % (AMARE [15])	Pre-emergence action against ECHCG in % (ECHCG [16])	other results
CCCNC(=O)c1c(C(F)F)ccc(C(=O)Nc2nnnn2CC)c1Cl [Example 2-154]	90%	100%	100%	90%	100%	100%	100%	80%	100%	100%	100%	100%	90%	100%	100%	100%	90%	90%	90%	100%	Pre-emergence action against VERPE in % (VERPE): 100%; Post-emergence action against PHBPU in % (PHBPU [5]; dosage 5 g/ha): 90%; Post-emergence action against PHBPU in % (PHBPU [5]; dosage 20 g/ha): 90%; Post-emergence action against ALOMY in % (ALOMY [8]): 80%; Post-emergence action against ABUTH in % (ABUTH [11]; dosage 5 g/ha): 80%; Pre-emergence action against PHBPU in % (PHBPU [13]; dosage 20 g/ha): 80%
CCn1nnnc1NC(=O)c1ccc(C(F)(F)F)c(C(=O)NCC(F)F)c1Br [Example 2-212]	100%		100%	80%	100%		100%			100%	100%	100%			100%	80%	80%	90%		90%	Pre-emergence action against AVEFA in % (AVEFA): 90%
CCn1nnnc1NC(=O)c1ccc(C(F)(F)F)c(C(=O)NCC2CC2)c1Cl [Example 2-132]	80%	80%	100%	80%	100%	100%	90%	80%	100%	100%	100%	100%	80%	100%	100%	90%	90%	90%	90%	100%	Pre-emergence action against AVEFA in % (AVEFA): 90%; Post-emergence action against VIOTR in % (VIOTR [17]): 90%; Post-emergence action against MATIN in % (MATIN [6]; dosage 5 g/ha): 80%; Post-emergence action against SETVI in % (SETVI [18]): 80%; Pre-emergence action against VIOTR in % (VIOTR [9]; dosage 20 g/ha): 100%
